Results on 32 compounds are retold here after US20090111801A1, “SUBSTITUTED PYRAZINONE DERIVATIVES FOR USE AS A MEDICINE” (Janssen Pharmaceutica N.V., priority 2006, published 2009).

One assay concerns the target T1, hα2A receptor (Homo sapiens, UniProt P08913).
T1 construct: expressed in transfected cells; host or cells: CHO cells, stably transfected; membrane preparation
T1 sequence (P08913 1-465): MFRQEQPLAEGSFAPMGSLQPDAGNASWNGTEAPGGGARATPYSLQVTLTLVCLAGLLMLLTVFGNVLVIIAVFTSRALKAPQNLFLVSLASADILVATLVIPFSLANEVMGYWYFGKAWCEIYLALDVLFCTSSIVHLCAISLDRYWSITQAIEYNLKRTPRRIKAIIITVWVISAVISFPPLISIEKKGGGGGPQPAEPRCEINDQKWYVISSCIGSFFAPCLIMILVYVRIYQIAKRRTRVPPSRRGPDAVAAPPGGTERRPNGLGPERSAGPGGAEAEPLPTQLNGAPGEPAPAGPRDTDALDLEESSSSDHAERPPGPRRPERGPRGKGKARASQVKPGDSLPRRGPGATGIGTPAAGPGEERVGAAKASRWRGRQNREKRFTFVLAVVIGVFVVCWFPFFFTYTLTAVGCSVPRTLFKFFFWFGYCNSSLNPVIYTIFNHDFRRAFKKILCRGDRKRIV
Briefly: Radioligand binding experiment for α2A-adrenoceptor ([3H]raulwolscine, CHO cell membranes). To be noted: [3H]raulwolscine binding; for IC50: read-out: h-α2A pIC50 (converted).

The next assay concerns the target T2, hα2C receptor (Homo sapiens, UniProt P18825).
T2 construct: expressed in transfected cells; host or cells: CHO cells, stably transfected; membrane preparation
T2 sequence (P18825 1-462): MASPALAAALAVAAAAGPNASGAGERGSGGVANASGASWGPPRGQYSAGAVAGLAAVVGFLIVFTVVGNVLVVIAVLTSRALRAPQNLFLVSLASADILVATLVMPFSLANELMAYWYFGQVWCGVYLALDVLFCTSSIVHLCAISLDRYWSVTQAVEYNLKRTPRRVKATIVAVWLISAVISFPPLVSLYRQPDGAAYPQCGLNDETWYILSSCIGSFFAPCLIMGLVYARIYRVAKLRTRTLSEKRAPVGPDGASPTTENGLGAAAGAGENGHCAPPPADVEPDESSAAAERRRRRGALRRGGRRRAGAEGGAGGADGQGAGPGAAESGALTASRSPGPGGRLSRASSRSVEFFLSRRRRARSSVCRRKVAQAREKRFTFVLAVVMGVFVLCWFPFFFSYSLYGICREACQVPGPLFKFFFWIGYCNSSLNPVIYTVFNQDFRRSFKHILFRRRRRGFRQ
Briefly: Radioligand binding experiment for α2C-adrenoceptor ([3H]raulwolscine, CHO cell membranes). To be noted: [3H]raulwolscine binding; for IC50: read-out: h-α2C pIC50 (converted).

In the next assay the target is T3, 5HT-Transporter (Homo sapiens, UniProt P31645).
T3 construct: Human platelet membranes (Oceanix Biosciences Corporation, Hanover, Md., USA) were thawed; tissue Oceanix Biosciences Corporation, Hanover, Md., USA; host or cells: human platelet membranes
The assay can be described thus: Binding experiment for the 5HT-transporter ([3H]paroxetine, human platelet membranes). To be noted: [3H]paroxetine 0.5 nM; for IC50: read-out: h-5HTT pIC50 (converted). The gist of the method: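 Filter-bound radioactivity from human platelet membranes incubated with [3H]paroxetine and test compound (buffer Tris-HCl 50 mM, 120 mM NaCl, 5 mM KCl) was counted.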

T3 sequence (P31645 whole entry): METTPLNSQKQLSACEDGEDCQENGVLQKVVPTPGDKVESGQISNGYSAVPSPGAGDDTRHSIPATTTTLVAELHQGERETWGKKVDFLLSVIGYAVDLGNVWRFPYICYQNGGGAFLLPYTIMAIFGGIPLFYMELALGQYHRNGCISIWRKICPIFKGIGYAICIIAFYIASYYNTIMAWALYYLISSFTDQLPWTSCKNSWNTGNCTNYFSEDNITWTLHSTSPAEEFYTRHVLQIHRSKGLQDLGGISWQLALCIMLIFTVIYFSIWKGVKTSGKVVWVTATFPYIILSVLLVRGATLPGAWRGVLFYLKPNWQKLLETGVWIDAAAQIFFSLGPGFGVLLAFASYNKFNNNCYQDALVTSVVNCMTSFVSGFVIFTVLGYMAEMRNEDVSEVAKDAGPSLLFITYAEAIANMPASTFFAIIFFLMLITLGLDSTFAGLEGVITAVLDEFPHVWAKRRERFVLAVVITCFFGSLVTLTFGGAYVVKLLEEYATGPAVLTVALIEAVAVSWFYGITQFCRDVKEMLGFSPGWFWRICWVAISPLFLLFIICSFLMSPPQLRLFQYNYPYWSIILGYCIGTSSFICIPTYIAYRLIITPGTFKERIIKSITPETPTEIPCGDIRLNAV

Turning to `C/C(=C\c1ccccc1)CN1CCC(Nc2nccn(CC(=O)N(CCCN3CCCC3=O)Cc3ccc(F)cc3)c2=O)CC1` [1-139], the IC50 on hα2A receptor is 200 nM; at hα2C receptor, 3.16 nM; at 5HT-Transporter it was 2510 nM.
In the case of `C/C(=C\c1ccccc1)CN1CCC(Nc2nccn(-c3ccc(C(=O)NCCN4CCCCC4)cc3)c2=O)CC1` [1-140], the IC50 at hα2A receptor is 39.8 nM; at hα2C receptor, 3.98 nM; at 5HT-Transporter it was 200 nM.
On to `C/C(=C\c1ccccc1)CN1CCC(Nc2nccn(CC(=O)NCc3cccnc3)c2=O)CC1` [1-141], for which the IC50 at hα2A receptor was 100 nM; at hα2C receptor, 6.31 nM; on 5HT-Transporter it was 1580 nM.
Turning to `CCN(Cc1ccncc1)C(=O)Cn1ccnc(NC2CCN(C/C(C)=C/c3ccccc3)CC2)c1=O` [1-142], the IC50 at hα2A receptor was 158 nM; at hα2C receptor, 3.16 nM; at 5HT-Transporter it was 1000 nM.
In the same order, the values of `C/C(=C\c1ccccc1)CN1CCC(Nc2nccn(CC(=O)N(CCCn3ccnc3)Cc3ccc(F)cc3)c2=O)CC1` [1-143] are 79.4 nM, 3.16 nM and 2000 nM.
Regarding `C/C(=C\c1ccccc1)CN1CCC(Nc2nccn(CC(=O)NCC3CCCO3)c2=O)CC1` (stereo not drawn) [1-144], the IC50 at hα2A receptor is 158 nM; on hα2C receptor, 6.31 nM; at 5HT-Transporter, 3160 nM.
In the same order, the values of `C/C(=C\c1ccccc1)CN1CCC(Nc2nccn(-c3cccc(CNCC4CCCO4)c3)c2=O)CC1` (stereo not drawn) [1-145] are 20 nM, 1.26 nM and 794 nM.
Turning to `C/C(=C\c1ccccc1)CN1CCC(Nc2nccn(-c3ccc(CNCC4CCCO4)cc3)c2=O)CC1` (stereo not drawn) [1-146], at hα2A receptor, the “h-α2A pIC50” value is 7.0. Further, the “h-α2C pIC50” value at hα2C receptor came to 8.6. For the same compound, the “h-5HTT pIC50” value at 5HT-Transporter is 6.3.
`C/C(=C\c1ccccc1)CN1CCC(Nc2nccn(CC(=O)NCc3ccco3)c2=O)CC1` [1-147]: the IC50 at hα2A receptor was 50.1 nM; at hα2C receptor, 3.16 nM; at 5HT-Transporter, 3160 nM.
Consider `C/C(=C\c1ccccc1)CN1CCC(Nc2nccn(CC(=O)NCCN3CCOCC3)c2=O)CC1` [1-148], for which the results for the IC50 on hα2A receptor, on hα2C receptor and at 5HT-Transporter were 251 nM, 7.94 nM and 1260 nM, respectively.
Consider `C/C(=C\c1ccccc1)CN1CCC(Nc2nccn(-c3cccc(CNCCN4CCOCC4)c3)c2=O)CC1` [1-149], for which the “h-α2A pIC50” value on hα2A receptor amounted to 7.6. The “h-α2C pIC50” value at hα2C receptor is 8.4. Besides, the “h-5HTT pIC50” value at 5HT-Transporter is 5.5.
For `C/C(=C\c1ccccc1)CN1CCC(Nc2nccn(-c3ccc(CNCCN4CCOCC4)cc3)c2=O)CC1` [1-150], the IC50 was 100 nM at hα2A receptor, 3.98 nM on hα2C receptor and 794 nM at 5HT-Transporter.
The corresponding values for `C/C(=C\c1ccccc1)CN1CCC(Nc2nccn(CC(=O)N(CCN3CCOCC3)Cc3ccc(F)cc3)c2=O)CC1` [1-151] are 126 nM, 2 nM and 1260 nM.
Take `C/C(=C\c1ccccc1)CN1CCC(Nc2nccn(-c3ccc(CNC(=O)c4ccno4)cc3)c2=O)CC1` [1-153]: the “h-α2A pIC50” value on hα2A receptor is listed as 6.9. The “h-α2C pIC50” value on hα2C receptor amounted to 8.9. Further, at 5HT-Transporter, the “h-5HTT pIC50” value is given as 6.1.
With `C/C(=C\c1ccccc1)CN1CCC(Nc2nccn(Cc3ccc(CNC(=O)c4ccncc4)cc3)c2=O)CC1` [1-154], the IC50 at hα2A receptor was 126 nM; at hα2C receptor it was 39.8 nM; on 5HT-Transporter it was 398 nM.
The corresponding values for `C/C(=C\c1ccccc1)CN1CCC(Nc2nccn(CCCNS(C)(=O)=O)c2=O)CC1` [1-155] are 200 nM, 20 nM and 1260 nM.
In the same order, the values of `C/C(=C\c1ccccc1)CN1CCC(Nc2nccn(Cc3ccc(CNS(C)(=O)=O)cc3)c2=O)CC1` [1-156] are 158 nM, 31.6 nM and 1260 nM.
In the same order, the values of `CCCCS(=O)(=O)NCc1ccc(Cn2ccnc(NC3CCN(C/C(C)=C/c4ccccc4)CC3)c2=O)cc1` [1-157] are 251 nM, 50.1 nM and 1000 nM.
Turning to `C/C(=C\c1ccccc1)CN1CCC(Nc2nccn(CCCNS(=O)(=O)c3ccccc3)c2=O)CC1` [1-158], the IC50 on hα2A receptor was 100 nM; on hα2C receptor it was 6.31 nM; at 5HT-Transporter it was 158 nM.
The corresponding values for `C/C(=C\c1ccccc1)CN1CCC(Nc2nccn(CCCN(C)S(=O)(=O)c3ccccc3)c2=O)CC1` [1-160] are 158 nM, 12.6 nM and 501 nM.
As for `C/C(=C\c1ccccc1)CN1CCC(Nc2nccn(Cc3ccc(CNS(=O)(=O)c4ccc(C#N)cc4)cc3)c2=O)CC1` [1-161], the IC50 at hα2A receptor is 100 nM; at hα2C receptor, 25.1 nM; at 5HT-Transporter it was 501 nM.
In the case of `C/C(=C\c1ccccc1)CN1CCC(Nc2nccn(Cc3ccc(CNS(=O)(=O)c4ccc(F)cc4)cc3)c2=O)CC1` [1-162], the IC50 on hα2A receptor is 100 nM; on hα2C receptor it was 20 nM; on 5HT-Transporter, 316 nM.
In the same order, the values of `C/C(=C\c1ccccc1)CN1CCC(Nc2nccn(Cc3ccc(CNS(=O)(=O)c4ccc(C(F)(F)F)cc4)cc3)c2=O)CC1` [1-163] are 158 nM, 39.8 nM and 794 nM.
The corresponding values for `CC(=O)Nc1ccc(S(=O)(=O)NCc2ccc(Cn3ccnc(NC4CCN(C/C(C)=C/c5ccccc5)CC4)c3=O)cc2)cc1` [1-164] are 158 nM, 20 nM and 501 nM.
The corresponding values for `C/C(=C\c1ccccc1)CN1CCC(Nc2nccn(-c3cccc(NS(=O)(=O)Cc4ccccc4)c3)c2=O)CC1` [1-166] are 63.1 nM, 12.6 nM and 316 nM.
With `C/C(=C\c1ccccc1)CN1CCC(Nc2nccn(Cc3ccc(CNS(=O)(=O)/C=C/c4ccccc4)cc3)c2=O)CC1` [1-167], the IC50 on hα2A receptor is 200 nM; at hα2C receptor, 39.8 nM; on 5HT-Transporter, 631 nM.
For `C/C(=C\c1ccccc1)CN1CCC(Nc2nccn(CCCN(c3ccccc3)S(=O)(=O)c3ccccc3)c2=O)CC1` [1-168], the IC50 on hα2A receptor is 158 nM; at hα2C receptor, 10 nM; at 5HT-Transporter, 200 nM.
In the same order, the values of `C/C(=C\c1ccccc1)CN1CCC(Nc2nccn(CCCN(Cc3ccccc3)S(C)(=O)=O)c2=O)CC1` [1-169] are 200 nM, 10 nM and 316 nM.
In the same order, the values of `C/C(=C\c1ccccc1)CN1CCC(Nc2nccn(CCCN(Cc3ccccc3)S(=O)(=O)c3ccccc3)c2=O)CC1` [1-170] are 200 nM, 12.6 nM and 251 nM.
The corresponding values for `C/C(=C\c1ccccc1)CN1CCC(Nc2nccn(Cc3ccc(CNS(=O)(=O)c4c(C)noc4C)cc3)c2=O)CC1` [1-171] are 158 nM, 20 nM and 794 nM.
With `C/C(=C\c1ccccc1)CN1CCC(Nc2nccn(CC(=O)c3ccc(N4CCCC4)cc3)c2=O)CC1` [2-1], the results for the IC50 at hα2A receptor, at hα2C receptor and at 5HT-Transporter were 31.6 nM, 39.8 nM and 1260 nM, respectively.
The corresponding values for `C/C(=C\c1ccccc1)CN1CCC(Nc2nccn(-c3ccc(C(=O)N4CCC(N(C)C)C4)cc3)c2=O)CC1` (stereo not drawn) [2-2] are 63.1 nM, 5.01 nM and 398 nM.
